Measured values reported in patent publication US12478624B2, “Heterocyclic derivatives, pharmaceutical compositions and their use in the treatment or amelioration of cancer” (Tolremo Therapeutics AG, priority 2019, dated 2025).

Columns and labels:
BRDT(1) = molecular target: T1, BRDT(1) (Homo sapiens, UniProt Q58F21); experiment: BromoKdMAX (BROMOscan, DiscoverX); type: binding
T1 construct: T7 phage strains displaying bromodomains were grown in parallel; purchased DiscoverX; host or cells: T7 phage in an E. coli host derived from the BL21 strain
Experimental: (§1) A BromoKdMAX was performed at DiscoverX.
(§2) BROMOscan™ is a novel industry leading platform for identifying small molecule bromodomain inhibitors. Based on proven KINOMEscan™ technology, BROMOscan™ employs a proprietary ligand binding site-directed competition assay to quantitatively measure interactions between test compounds and bromodomains. This robust and reliable assay panel is suitable for high throughput screening and delivers quantitative ligand binding data to facilitate the identification and optimization of potent and selective small molecule bromodomain inhibitors.
(§3) For the Bromodomain assays, T7 phage strains displaying bromodomains were grown in parallel in 24-well blocks in an E. coli host derived from the BL21 strain. E. coli were grown to log-phase and infected with T7 phage from a frozen stock (multiplicity of infection=0.4) and incubated with shaking at 32° C. until lysis (90-150 minutes). The lysates were centrifuged (5,000×g) and filtered (0.2 μm) to remove cell debris. […] The liganded beads were blocked with excess biotin and washed with blocking buffer (SeaBlock (Pierce), 1% BSA, 0.05% Tween 20, 1 mM DTT) to remove unbound ligand and to reduce non-specific phage binding. […] Test compounds were prepared as 1000× stocks in 100% DMSO. Kds were determined using an 11-point 3-fold compound dilution series with one DMSO control point. […] The compounds were then diluted directly into the assays such that the final concentration of DMSO was 0.09%. All reactions performed in polypropylene 384-well plates. Each was a final volume of 0.02 ml. […] The bromodomain concentration in the eluates was measured by qPCR.

TRIM24(Bromo.) = molecular target: T2, TRIM24(Bromo.) (Homo sapiens, UniProt O15164); experiment: BromoKdMAX (BROMOscan, DiscoverX); type: binding
T2 construct: T7 phage strains displaying bromodomains were grown in parallel; purchased DiscoverX; host or cells: T7 phage grown in E. coli host derived from BL21
T2 sequence (O15164 899-1004 limits assumed): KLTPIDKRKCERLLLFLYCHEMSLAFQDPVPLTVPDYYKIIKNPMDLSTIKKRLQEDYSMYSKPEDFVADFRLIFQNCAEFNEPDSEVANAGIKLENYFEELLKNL
Experimental: as §1, §2, §3

BRD3(2) = molecular target: T3, BRD3(2) (Homo sapiens, UniProt Q15059); experiment: BromoKdMAX (BROMOscan, DiscoverX); type: binding
T3 construct: T7 phage strains displaying bromodomains were grown in parallel; purchased DiscoverX; host or cells: T7 phage in an E. coli host derived from the BL21 strain
T3 sequence (Q15059 306-415 limits assumed): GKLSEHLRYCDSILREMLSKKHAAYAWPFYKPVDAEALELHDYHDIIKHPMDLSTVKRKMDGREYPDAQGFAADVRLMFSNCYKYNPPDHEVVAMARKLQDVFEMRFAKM
Experimental: as §1, §2, §3

BAZ2B = molecular target: T4, BAZ2B (Homo sapiens, UniProt Q9UIF8); experiment: BromoKdMAX (BROMOscan, DiscoverX); type: binding
T4 construct: T7 phage strains displaying bromodomains were grown in parallel; purchased DiscoverX; host or cells: T7 phage in an E. coli host derived from the BL21 strain
T4 sequence (Q9UIF8 2060-2164 limits assumed): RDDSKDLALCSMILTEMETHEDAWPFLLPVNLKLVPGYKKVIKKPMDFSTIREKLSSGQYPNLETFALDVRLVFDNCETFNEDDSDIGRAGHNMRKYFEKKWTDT
Experimental: as §1, §2, §3

BRPF3 = molecular target: T5, BRPF3 (Homo sapiens, UniProt Q9ULD4); experiment: BromoKdMAX (BROMOscan, DiscoverX); type: binding
T5 construct: T7 phage strains displaying bromodomains were grown in parallel; purchased DiscoverX; host or cells: T7 phage in an E. coli host derived from the BL21 strain
T5 sequence (Q9ULD4 589-693 limits assumed): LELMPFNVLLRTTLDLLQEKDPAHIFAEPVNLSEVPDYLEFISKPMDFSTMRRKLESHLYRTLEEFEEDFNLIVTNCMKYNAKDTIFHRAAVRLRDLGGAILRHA
Experimental: as §1, §2, §3

ATAD2A = molecular target: T6, ATAD2A (Homo sapiens, UniProt Q6PL18); experiment: BromoKdMAX (BROMOscan, DiscoverX); type: binding
T6 construct: T7 phage strains displaying bromodomains were grown in parallel; purchased DiscoverX; host or cells: T7 phage in an E. coli host derived from the BL21 strain
T6 sequence (Q6PL18 980-1092 limits assumed): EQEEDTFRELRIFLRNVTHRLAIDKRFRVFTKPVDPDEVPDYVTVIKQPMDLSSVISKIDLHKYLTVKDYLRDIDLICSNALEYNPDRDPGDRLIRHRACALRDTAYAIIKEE
Experimental: as §1, §2, §3

BRD8(2) = molecular target: T7, BRD8(2) (Homo sapiens, UniProt Q9H0E9); experiment: BromoKdMAX (BROMOscan, DiscoverX); type: binding
T7 construct: T7 phage strains displaying bromodomains were grown in parallel; purchased DiscoverX; host or cells: T7 phage in an E. coli host derived from the BL21 strain
T7 sequence (Q9H0E9 1099-1207 limits assumed): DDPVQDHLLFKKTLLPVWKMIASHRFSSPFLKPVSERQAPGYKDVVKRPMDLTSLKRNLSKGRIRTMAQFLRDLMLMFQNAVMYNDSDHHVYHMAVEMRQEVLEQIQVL
Experimental: as §1, §2, §3

CECR2 = molecular target: T8, CECR2 (Homo sapiens, UniProt Q9BXF3); experiment: BromoKdMAX (BROMOscan, DiscoverX); type: binding
T8 construct: T7 phage strains displaying bromodomains were grown in parallel; purchased DiscoverX; host or cells: T7 phage grown in E. coli host derived from BL21
T8 sequence (Q9BXF3 434-538 limits assumed): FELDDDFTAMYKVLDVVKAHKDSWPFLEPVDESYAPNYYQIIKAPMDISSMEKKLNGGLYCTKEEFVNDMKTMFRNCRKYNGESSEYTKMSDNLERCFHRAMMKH
Experimental: as §1, §2, §3

FALZ = molecular target: T9, FALZ (Homo sapiens, UniProt Q12830); experiment: BromoKdMAX (BROMOscan, DiscoverX); type: binding; conditions: FALZ (BPTF)
T9 construct: T7 phage strains displaying bromodomains were grown in parallel; purchased DiscoverX; host or cells: T7 phage grown in E. coli host derived from BL21
Experimental: as §1, §2, §3

BRD8(1) = molecular target: T10, BRD8(1) (Homo sapiens, UniProt Q9H0E9); experiment: BromoKdMAX (BROMOscan, DiscoverX); type: binding
T10 construct: T7 phage strains displaying bromodomains were grown in parallel; purchased DiscoverX; host or cells: T7 phage in an E. coli host derived from the BL21 strain
T10 sequence (Q9H0E9 706-811 limits assumed): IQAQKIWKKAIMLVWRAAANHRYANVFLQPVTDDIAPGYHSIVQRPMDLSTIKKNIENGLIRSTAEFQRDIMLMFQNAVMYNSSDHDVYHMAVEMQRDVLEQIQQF
Experimental: as §1, §2, §3

BRDT(2) = molecular target: T11, BRDT(2) (Homo sapiens, UniProt Q58F21); experiment: BromoKdMAX (BROMOscan, DiscoverX); type: binding
T11 construct: T7 phage strains displaying bromodomains were grown in parallel; purchased DiscoverX; host or cells: T7 phage in an E. coli host derived from the BL21 strain
Experimental: as §1, §2, §3

GCN5L2 = molecular target: T12, GCN5L2 (Homo sapiens, UniProt Q92830); experiment: BromoKdMAX (BROMOscan, DiscoverX); type: binding; conditions: GCN5L2 (KAT2A)
T12 construct: T7 phage strains displaying bromodomains were grown in parallel; purchased DiscoverX; host or cells: T7 phage grown in E. coli host derived from BL21
T12 sequence (Q92830 728-832 limits assumed): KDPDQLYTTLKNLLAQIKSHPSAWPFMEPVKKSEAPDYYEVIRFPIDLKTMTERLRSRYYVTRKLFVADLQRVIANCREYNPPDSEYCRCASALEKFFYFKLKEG
Experimental: as §1, §2, §3

SMARCA4 = molecular target: T13, SMARCA4 (Homo sapiens, UniProt P51532); experiment: BromoKdMAX (BROMOscan, DiscoverX); type: binding
T13 construct: T7 phage strains displaying bromodomains were grown in parallel; purchased DiscoverX; host or cells: T7 phage grown in E. coli host derived from BL21
T13 sequence (P51532 1453-1564 limits assumed): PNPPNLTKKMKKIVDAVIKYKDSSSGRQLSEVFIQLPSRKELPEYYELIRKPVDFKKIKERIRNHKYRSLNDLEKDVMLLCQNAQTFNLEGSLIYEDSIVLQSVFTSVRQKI
Experimental: as §1, §2, §3

TAF1(2) = molecular target: T14, TAF1(2) (Homo sapiens, UniProt P21675); experiment: BromoKdMAX (BROMOscan, DiscoverX); type: binding
T14 construct: T7 phage strains displaying bromodomains were grown in parallel; purchased DiscoverX; host or cells: T7 phage grown in E. coli host derived from BL21
T14 sequence (P21675 1519-1628 limits assumed): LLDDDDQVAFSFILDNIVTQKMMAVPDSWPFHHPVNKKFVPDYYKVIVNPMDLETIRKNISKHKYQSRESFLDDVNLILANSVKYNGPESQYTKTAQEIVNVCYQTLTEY
Experimental: as §1, §2, §3

BRD9 = molecular target: T15, BRD9 (Homo sapiens, UniProt Q9H8M2); experiment: BromoKdMAX (BROMOscan, DiscoverX); type: binding
T15 construct: T7 phage strains displaying bromodomains were grown in parallel; purchased DiscoverX; host or cells: T7 phage in an E. coli host derived from the BL21 strain
T15 sequence (Q9H8M2 136-240 limits assumed): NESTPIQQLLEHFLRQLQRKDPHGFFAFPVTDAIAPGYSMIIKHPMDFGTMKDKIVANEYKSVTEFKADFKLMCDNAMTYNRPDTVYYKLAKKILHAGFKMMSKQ
Experimental: as §1, §2, §3

ATAD2B = molecular target: T16, ATAD2B (Homo sapiens, UniProt Q9ULI0); experiment: BromoKdMAX (BROMOscan, DiscoverX); type: binding
T16 construct: T7 phage strains displaying bromodomains were grown in parallel; purchased DiscoverX; host or cells: T7 phage in an E. coli host derived from the BL21 strain
T16 sequence (Q9ULI0 951-1066 limits assumed): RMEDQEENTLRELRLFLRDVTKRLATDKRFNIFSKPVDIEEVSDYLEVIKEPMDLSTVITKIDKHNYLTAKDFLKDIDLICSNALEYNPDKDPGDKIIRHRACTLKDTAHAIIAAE
Experimental: as §1, §2, §3

TRIM24(PHD, Bromo.) = molecular target: T17, TRIM24(PHD, Bromo.) (Homo sapiens, UniProt O15164); experiment: BromoKdMAX (BROMOscan, DiscoverX); type: binding
T17 construct: TRIM24(PHD, Bromo.); purchased DiscoverX; host or cells: T7 phage grown in E. coli host derived from BL21
T17 sequence (O15164 824-1006 limits assumed): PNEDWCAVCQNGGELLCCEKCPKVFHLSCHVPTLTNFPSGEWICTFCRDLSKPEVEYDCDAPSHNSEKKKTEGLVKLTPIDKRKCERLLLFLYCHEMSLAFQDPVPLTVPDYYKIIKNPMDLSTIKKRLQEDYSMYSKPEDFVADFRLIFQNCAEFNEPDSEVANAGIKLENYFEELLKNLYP
Experimental: as §1, §2, §3

PBRM1(5) = molecular target: T18, PBRM1(5) (Homo sapiens, UniProt Q86U86); experiment: BromoKdMAX (BROMOscan, DiscoverX); type: binding
T18 construct: T7 phage strains displaying bromodomains were grown in parallel; purchased DiscoverX; host or cells: T7 phage grown in E. coli host derived from BL21
T18 sequence (Q86U86 653-763 limits assumed): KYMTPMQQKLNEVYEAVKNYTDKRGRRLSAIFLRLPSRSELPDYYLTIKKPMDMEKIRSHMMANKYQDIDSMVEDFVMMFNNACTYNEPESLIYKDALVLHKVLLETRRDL
Experimental: as §1, §2, §3

BRD3(1) = molecular target: T19, BRD3(1) (Homo sapiens, UniProt Q15059); experiment: BromoKdMAX (BROMOscan, DiscoverX); type: binding
T19 construct: T7 phage strains displaying bromodomains were grown in parallel; purchased DiscoverX; host or cells: T7 phage in an E. coli host derived from the BL21 strain
T19 sequence (Q15059 34-140 limits assumed): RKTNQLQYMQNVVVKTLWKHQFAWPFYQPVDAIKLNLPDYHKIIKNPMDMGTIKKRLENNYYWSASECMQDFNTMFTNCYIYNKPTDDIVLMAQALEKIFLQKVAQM
Experimental: as §1, §2, §3

BRD1 = molecular target: T20, BRD1 (Homo sapiens, UniProt O95696); experiment: BromoKdMAX (BROMOscan, DiscoverX); type: binding
T20 construct: T7 phage strains displaying bromodomains were grown in parallel; purchased DiscoverX; host or cells: T7 phage in an E. coli host derived from the BL21 strain
T20 sequence (O95696 562-666 limits assumed): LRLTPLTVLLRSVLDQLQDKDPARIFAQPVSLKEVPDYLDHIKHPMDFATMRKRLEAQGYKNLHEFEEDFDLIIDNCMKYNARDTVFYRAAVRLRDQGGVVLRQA
Experimental: as §1, §2, §3

PCAF = molecular target: T21, PCAF (Homo sapiens, UniProt Q92831); experiment: BromoKdMAX (BROMOscan, DiscoverX); type: binding; conditions: PCAF (KAT2B)
T21 construct: T7 phage strains displaying bromodomains were grown in parallel; purchased DiscoverX; host or cells: T7 phage grown in E. coli host derived from BL21
T21 sequence (Q92831 723-827 limits assumed): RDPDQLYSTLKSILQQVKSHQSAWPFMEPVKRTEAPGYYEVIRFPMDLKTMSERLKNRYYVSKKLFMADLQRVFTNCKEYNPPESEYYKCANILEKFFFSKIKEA
Experimental: as §1, §2, §3

WDR9(2) = molecular target: T22, WDR9(2) (Homo sapiens, UniProt Q9NSI6); experiment: BromoKdMAX (BROMOscan, DiscoverX); type: binding; conditions: WDR9(2) (BRWD1)
T22 construct: T7 phage strains displaying bromodomains were grown in parallel; purchased DiscoverX; host or cells: T7 phage grown in E. coli host derived from BL21
T22 sequence (Q9NSI6 1313-1418 limits assumed): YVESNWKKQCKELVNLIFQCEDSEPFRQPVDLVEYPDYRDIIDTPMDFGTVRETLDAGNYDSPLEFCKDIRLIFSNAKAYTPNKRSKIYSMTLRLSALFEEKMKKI
Experimental: as §1, §2, §3

SMARCA2 = molecular target: T23, SMARCA2 (Homo sapiens, UniProt P51531); experiment: BromoKdMAX (BROMOscan, DiscoverX); type: binding
T23 construct: T7 phage strains displaying bromodomains were grown in parallel; purchased DiscoverX; host or cells: T7 phage grown in E. coli host derived from BL21
T23 sequence (P51531 1378-1506 limits assumed): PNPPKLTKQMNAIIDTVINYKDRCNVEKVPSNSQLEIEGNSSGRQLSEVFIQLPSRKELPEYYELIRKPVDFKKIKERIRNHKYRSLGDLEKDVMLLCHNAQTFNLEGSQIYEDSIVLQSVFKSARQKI
Experimental: as §1, §2, §3

TAF1L(2) = molecular target: T24, TAF1L(2) (Homo sapiens, UniProt Q8IZX4); experiment: BromoKdMAX (BROMOscan, DiscoverX); type: binding
T24 construct: T7 phage strains displaying bromodomains were grown in parallel; purchased DiscoverX; host or cells: T7 phage grown in E. coli host derived from BL21
T24 sequence (Q8IZX4 1517-1626 limits assumed): as the sequence (P21675 1519-1628 limits assumed) above, with V46M, M51V, V102I, L107I counted along it
Experimental: as §1, §2, §3

BRDT(1, 2) = molecular target: T25, BRDT(1, 2) (Homo sapiens, UniProt Q58F21); experiment: BromoKdMAX (BROMOscan, DiscoverX); type: binding
T25 construct: T7 phage strains displaying bromodomains were grown in parallel; purchased DiscoverX; host or cells: T7 phage in an E. coli host derived from the BL21 strain
Experimental: as §1, §2, §3

PBRM1(2) = molecular target: T26, PBRM1(2) (Homo sapiens, UniProt Q86U86); experiment: BromoKdMAX (BROMOscan, DiscoverX); type: binding
T26 construct: T7 phage strains displaying bromodomains were grown in parallel; purchased DiscoverX; host or cells: T7 phage grown in E. coli host derived from BL21
T26 sequence (Q86U86 177-287 limits assumed): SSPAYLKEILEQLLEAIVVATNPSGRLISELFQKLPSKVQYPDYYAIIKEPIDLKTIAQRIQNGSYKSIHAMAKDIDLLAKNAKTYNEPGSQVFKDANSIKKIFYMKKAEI
Experimental: as §1, §2, §3

BRD7 = molecular target: T27, BRD7 (Homo sapiens, UniProt Q9NPI1); experiment: BromoKdMAX (BROMOscan, DiscoverX); type: binding
T27 construct: T7 phage strains displaying bromodomains were grown in parallel; purchased DiscoverX; host or cells: T7 phage in an E. coli host derived from the BL21 strain
T27 sequence (Q9NPI1 131-235 limits assumed): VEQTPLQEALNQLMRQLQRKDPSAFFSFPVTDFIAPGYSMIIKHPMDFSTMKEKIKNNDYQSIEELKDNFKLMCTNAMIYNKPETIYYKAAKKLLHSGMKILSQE
Experimental: as §1, §2, §3

BRD3(1, 2) = molecular target: T28, BRD3(1, 2) (Homo sapiens, UniProt Q15059); experiment: BromoKdMAX (BROMOscan, DiscoverX); type: binding
T28 construct: T7 phage strains displaying bromodomains were grown in parallel; purchased DiscoverX; host or cells: T7 phage in an E. coli host derived from the BL21 strain
T28 sequence (Q15059 24-416 limits assumed): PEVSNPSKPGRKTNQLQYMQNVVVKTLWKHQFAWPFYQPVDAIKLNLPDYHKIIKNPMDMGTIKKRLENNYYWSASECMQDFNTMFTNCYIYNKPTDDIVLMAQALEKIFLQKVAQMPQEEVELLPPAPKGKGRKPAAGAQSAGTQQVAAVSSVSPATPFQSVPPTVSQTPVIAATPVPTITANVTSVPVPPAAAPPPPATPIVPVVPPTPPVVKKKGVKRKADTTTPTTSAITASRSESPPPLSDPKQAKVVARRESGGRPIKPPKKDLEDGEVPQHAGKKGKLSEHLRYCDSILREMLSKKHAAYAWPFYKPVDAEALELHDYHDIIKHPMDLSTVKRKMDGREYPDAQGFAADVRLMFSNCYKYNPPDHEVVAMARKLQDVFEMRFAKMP
Experimental: as §1, §2, §3

BAZ2A = molecular target: T29, BAZ2A (Homo sapiens, UniProt Q9UIF9); experiment: BromoKdMAX (BROMOscan, DiscoverX); type: binding
T29 construct: T7 phage strains displaying bromodomains were grown in parallel; purchased DiscoverX; host or cells: T7 phage in an E. coli host derived from the BL21 strain
T29 sequence (Q9UIF9 1793-1897 limits assumed): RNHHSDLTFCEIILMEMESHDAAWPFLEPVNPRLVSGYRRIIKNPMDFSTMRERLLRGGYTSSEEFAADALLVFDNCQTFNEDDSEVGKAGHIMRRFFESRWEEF
Experimental: as §1, §2, §3

BRPF1 = molecular target: T30, BRPF1 (Homo sapiens, UniProt P55201); experiment: BromoKdMAX (BROMOscan, DiscoverX); type: binding
T30 construct: T7 phage strains displaying bromodomains were grown in parallel; purchased DiscoverX; host or cells: T7 phage in an E. coli host derived from the BL21 strain
T30 sequence (P55201 628-732 limits assumed): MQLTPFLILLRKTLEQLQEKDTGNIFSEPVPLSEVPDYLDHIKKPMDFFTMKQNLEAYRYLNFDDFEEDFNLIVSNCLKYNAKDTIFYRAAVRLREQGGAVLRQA
Experimental: as §1, §2, §3

OPM-2 = experiment: Assay 2: multiple myeloma cellular efficacy, PrestoBlue cell proliferation/survival; type: cell-based; conditions: Homo sapiens, 96 h, OPM-2 cells, 4 days
Outline: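 Cells seeded at 10000/well and exposed to a compound dose range or vehicle for 4 days, then stained with PrestoBlue for 2 h at 37 °C. Fluorescence was background-subtracted and normalized to vehicle; EC50 came from a four-parameter variable-slope fit against log concentration.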

COc1cncc(-c2cc(Nc3cccc(F)c3)nc([C@@H]3CC[C@H](C)N(C(C)=O)C3)n2)c1 [Compound 00004]
Kd (BRDT(1)): > 10 µM
Kd (TRIM24(Bromo.)): > 10 µM
Kd (BRD3(2)): > 10 µM
Kd (BAZ2B): > 10 µM
Kd (BRPF3): > 10 µM
Kd (ATAD2A): > 10 µM
Kd (BRD8(2)): > 10 µM
Kd (CECR2): > 10 µM
Kd (FALZ): > 10 µM
Kd (BRD8(1)): > 10 µM
Kd (BRDT(2)): > 10 µM
Kd (GCN5L2): > 10 µM
Kd (SMARCA4): > 10 µM
Kd (TAF1(2)): > 10 µM
Kd (BRD9): > 10 µM
Kd (ATAD2B): > 10 µM
Kd (TRIM24(PHD, Bromo.)): > 10 µM
Kd (PBRM1(5)): > 10 µM
Kd (BRD3(1)): > 10 µM
Kd (BRD1): > 10 µM
Kd (PCAF): > 10 µM
Kd (WDR9(2)): > 10 µM
Kd (SMARCA2): > 10 µM
Kd (TAF1L(2)): > 10 µM
Kd (BRDT(1, 2)): > 10 µM
Kd (PBRM1(2)): > 10 µM
Kd (BRD7): > 10 µM
Kd (BRD3(1, 2)): > 10 µM
Kd (BAZ2A): > 10 µM
Kd (BRPF1): > 10 µM
EC50 (OPM-2): < 200 nM
